{"source": "paper PMC9671377", "about": "“Label-free affinity screening, design and synthesis of inhibitors targeting the Mycobacterium tuberculosis L-alanine dehydrogenase” (PLOS ONE, 2022)", "key": {"L225A AlaDH": {"biological_target": "L225A AlaDH (Mycobacterium tuberculosis, UniProt P9WQB1, L225A)", "assay_type": "biochemical"}, "L249A AlaDH": {"biological_target": "L249A AlaDH (Mycobacterium tuberculosis, UniProt P9WQB1, L249A)", "assay_type": "biochemical"}}, "data": [{"smiles": "CC(C)CNc1ncnc2c1ncn2[C@@H]1O[C@H](CO)[C@@H](O)[C@H]1O", "note": "[N6-isobutyl adenosine]", "values": [{"measurement": "vi of L225A AlaDH after adding compound", "setting": "L225A AlaDH", "result": "0.821 x10^-3 [NADH]OD340/min"}, {"measurement": "vi of L249A AlaDH after adding compound", "setting": "L249A AlaDH", "result": "1.007 x10^-3 [NADH]OD340/min"}]}]}
